Molecules are shown by their SMILES.

This note sets out measurements from patent US20090054414A1, “Rufinamide for the Treatment of Post-Traumatic Stress Disorder” (SYNOSIA THERAPEUTICS, priority 2007, published 2009).

Test [1] relates to “intruder” rat. The experiment in a line: social exploration test in rats. Format: in vivo. Conditions: vs vehicle. The source says:
There remains a paucity of data investigating the anxiolytic potential of this rufinamide. Therefore the aim of the present study was to test the effect of rufinamide (FIG. 1, chemical structure of rufinamide) with regard to a possible facilitation of social behavior (anxiolytic-like effect) using the social exploration test in rats as a paradigm. The basis of this test is that when an adult “resident” rat is kept in social isolation for two weeks, its natural tendency to establish territorial defensive reactions is increased. […] Male adult Sprague Dawley rats (Ra238, OFA/IC strain, Iffa Credo, France) (“residents”) weighing 350-400 g and young Lister Hooded rats (li/ho, Harlan, The Netherlands) (“intruders”) weighing 100-120 g were used. “Intruders” were housed in pairs and the “residents” were individually housed for two weeks before the test in plastic cages (Macrolon, 42×26×15 cm). All animals lived in a room lit from 6 a.m. until 6 p.m. and had always free access to standard food and water. […]
Pairs consisting of one “intruder” rat and one “resident” rat were assigned at random to one of the experimental or the control groups. […] The duration of active approach behaviors of the “intruder” rat (sniffing, anogenital exploration, nosing, grooming, licking, playing) towards the “resident” was manually registered and cumulatively recorded over a period of 5 minutes. […]

In test [2] the test system is male OF-1 mice. The experiment in a line: half-enclosed platform (HEP) test. It is filed as in vivo, mouse. Conditions: 0.32/1/3.2 and 10 mg/kg p.o., 1 hr before testing. The source says: Rufinamide and carbamazepine were compared in the half-enclosed platform (HEP) test. The test determines how drugs affect the exploratory behaviour of a mouse placed upon a novel, half-enclosed platform and gives information as to whether a drug is a stimulant, depressant or disinhibitory as with, for example the benzodiazepines which increase exploration of the platform. It is also useful for determining duration of action and dose-findings studies. The HEP is a further development of the simple elevated platform used by Kaesermann to assess anxiolytic properties of drugs (Ref. Käsermann H. P. (1986) Psychopharmacol. 89:31-37). In this study carbamazepine and rufinamide were tested in the same dose ranges i.e. 0.32/1/3.2 and 10 mg/kg p.o. of each were given to male OF-1 mice 1 hr before testing.
The ethogram used consists of 9 elements of exploratory behaviour two of which involve static postures i.e. immobility and stretched attend posture, the latter being an ambivalent element indicative of approach-avoidance conflict. These elements are immediately spontaneous and are not induced by either training or punishment procedures. Upright postures which are posturally demanding are useful to detect muscle relaxation e.g. rearing (FIG. 10).

Test [3] deals with Male OF1/IC mice. The experiment in a line: modified stress-induced hyperthermia (SIH) test. It is filed as in vivo, mouse. On the procedure: Rufinamide was tested in the modified stress-induced model of anxiety. The stress-induced hyperthermia test in mice is a paradigm developed several years ago to model the expression of autonomic hyperactivity in anxiety (Lecci A, Borsini F, Volterra G, Meli A. (1990) Pharmacological validation of a novel model of anticipatory anxiety in mice. Psychopharmacology; 101:255-61.; Spooren W P, Schoeffter P, Gasparini F, Kuhn R, Gentsch C. (2002) Pharmacological and endocrinological characterisation of stress-induced hyperthermia in singly housed mice using classical and candidate anxiolytics (LY314582, MPEP and NKP608). Eur J Pharmacol; 435:161-70.;Zethof T J J, van der Heyden J A M, Tolboom J B M, Olivier B (1994) Stress-induced hyperthermia in mice: a methodological study. Phys. Behav. 55:109-115.). […] Pharmacol Biochem Behav 72:179-188.
Male OF1/IC mice (MA205 Tiger code) were obtained several days prior to behavioural testing from Iffa Credo (L'Arbresle, France; 18-20 g) and housed in groups of 15 animals per cage (macrolon cages 42H26H15 cm, Type 4). The animals were individually housed (macrolon cage: 26H21H14 cm, Type 2) 24 h before testing. The day preceding the experiment, all cages were transferred to the testing room—and background noise (radio) was used during the light cycle. Both the animal room and the laboratory were temperature controlled and equipped with artificial illumination (L12:D12; lights on 06:00). Mice always had ad libitum access to water and food (Ecosan, Eberle Nafag A G, Gossau, Schweiz).
The test procedure for the modified stress-induced hyperthermia was adapted from van der Heyden et al. (1997). Rectal temperature was measured in each mouse twice, i.e. at t=0 min (T1) and t=+15 min (T2). The difference in temperature (T2-T1) was considered to reflect the stress-induced hyperthermia (SIH). […] In addition, a comparison between T1 in vehicle-treated mice and in animals treated with a given dose of a test-compound was used, to measure whether a test-compound affected body temperature alone.
Rectal temperature was measured to the nearest 0.1° C. by an ELLAB instruments (Copenhagen, Denmark) thermometer Model DM 852 by inserting a lubricated thermistor probe model PRA-22002-A (ELLAB, Copenhagen, Denmark) (2.2 mm diameter) 20 mm into the rectum; the mouse was hand held at the base of the tail during this determination and the thermistor probe was left in place for 15 s.
All drugs were made up fresh and dissolved in vehicle (0.5% methylcellulose) and administered per os (p.o.) in a volume of 10 ml/kg.
All data was analysed using a one-way analysis of variance (ANOVA) followed where appropriate by Dunnett test of multiple comparisons. The level of significance was set at p<0.05.

Regarding `NC(=O)c1cn(Cc2c(F)cccc2F)nn1` [rufinamide, 1-(2,6-difluorobenzyl)-1H-1,2,3-triazole-4-carboxamide], in test [1] (rufinamide 0.3 mg/kg p.o., 1 hour after application), the “time spent in social contact” value is reported as “did not induce any significant change”. Moreover, the “duration of social contacts of an intruder toward a resident rat” value in test [1] (rufinamide 1, 3, 10, 30 and 100 mg/kg p.o., tested 1 hour after application, 5 min observation) was “significantly increased”. For the same compound, the “changes in durations of exploratory and stationary elements” value in test [2] is given as “followed suit but rarely attained statistical significance”. Moreover, in test [2], the “duration of head raising in the open half” value is listed as “increased”. In test [2], the “duration of inactivity (sta) in the enclosed half” value is reported as “shortened”. For the same compound, the “frequencies of stationary elements (Sta: sitting still, inactivity)” value in test [2] is “decreased in a significant manner”. Besides, the “exploratory elements stretched attend posture (sap), head raising (hu) and forward locomotion (go), frequency” value in test [2] (dose-related) is on record as “significantly increased”. The “body temperature T2 (15 min after stress)” value is reported as “significant lower body temperature than control animals” in test [3] (first experiment, rufinamide 100 mg/kg p.o., p<0.001); “significant lower body temperature than control animals” in test [3] (pooled data, rufinamide 25, 50, 100, 200 and 300 mg/kg); “significant lower body temperature than control animals” in test [3] (second experiment, rufinamide at the highest doses (30 and 100 mg/kg, p.o.)); “significant lower body temperature than control animals” in test [3] (third experiment, rufinamide 100 and 200 mg/kg p.o.). Also, the “SIH response (T2-T1)” value in test [3] (first experiment, rufinamide 3, 10, 30, 100 mg/kg p.o., 60 min before T1, n=12) is “only the positive control CDZ (10 mg/kg, p.o.) reversed significantly”; in test [3] (pooled data of all 3 experiments, rufinamide 30, 50, 100, 200 and 300 mg/kg p.o.), “significantly attenuated”; in test [3] (second experiment (0.3, 3, 30, 300 mg/kg tested), rufinamide 0.3, 30 and 300 mg/kg p.o. (p<0.05, p<0.01, p<0.001)) it was “significantly attenuated”; in test [3] (third experiment (25, 50, 100, 200 mg/kg tested), rufinamide 50 (p<0.05), 100 and 200 mg/kg p.o. (p<0.001)), “significantly reduced”. For the same compound, the “dose eliciting a robust reversal of the physiological response to an acute stressor” value in test [3] (p.o.) is above 30 mg/kg. The “doses needed to induce robust anxiolytic-like effects in the SIH paradigm” value in test [3] (p.o.) lay within 100 to 300 mg/kg.
